Marks after values point to notes of the source that are not given here.
Tests used:
[1] = Liposome disruption (OD600), normal membrane model
Protocol: Liposomes were prepared by extrusion techniques according to previous methods. Briefly, all liposomes were prepared in 2×concentration (5 mM). Healthy and cancer liposomal mimicking membranes were prepared with 72:23:[…] phosphatidylcholine (POPC):phosphatidylethanolamine (DOPE):phosphatidylserine (POPS) lipids, respectively. The lipids dissolved in chloroform were mixed in proper molar proportions before being evaporated under a stream of argon. The lipid film was then dried completely by lyophilization overnight. […] The extruded liposomes were then dialyzed in 3500 MWCO dialysis cassettes against water. Parallel optical density experiments were conducted measuring the absorbance at 600 nm (OD600) to track the kinetics and specificity of membrane disruption. Measurements were taken every 30 seconds for the first 10 min., followed by measurements every minute until 15 min.

OVCAR-3 cells [2] = assay: Annexin V-PI flow cytometry apoptosis assay; assay type: cell-based, human; details: IC50 of MAD1 (14 μM)
Protocol: OVCAR-3 cells were first seeded at 2×10^5 cells/well in 12 well plates. The cells were then allowed to adhere overnight. […] Wells were left in 5% serum media for negative and compensation controls. Cells were then trypsinized, washed in cold PBS, and centrifuged at 3,000 rpm at 15° C. for 5 min. After the supernatant was aspirated, the cells were resuspended in 100 μL of Annexin V Binding Buffer. In the dark, 5 μL of FITC Annexin V and 10 μL of Propidium Iodine solution were added to the cells, with compensation controls of a negative control with no staining, a FITC Annexin V only control, and a PI only control. The cells were then vortexed gently to combine and allowed to incubate for 15 min. at room temperature. 400 μL of Annexin V Binding Buffer was then added to each tube and stored on ice prior to analyzing by flow cytometry.
Flow cytometry was conducted on a LSRFortessa Flow Cytometer (BD Biosciences, Franklin Lakes, N.J.) using 488 nm and 532 nm lasers for FITC and PE-Texas Red signals to detect Annexin V and PI, respectively. Compensation was completed for 10,000 cells, and experiments were conducted over 20,000 cells.

[3] = system: patient-derived tumor cell spheroids (EOC15, 17, 19); assay: Ex vivo 3D tumor spheroid culture; assay type: cell-based, human; details: 2 μM cisplatin or 4 μM MAD1 alone, 48 hours
Protocol: EOC patient-derived cells were cultured in 1:1 MCDB-105: M199 supplemented with 10% FBS and 1% penicillin-streptomycin. EOC patient-derived cells were provided by Dr. Katherine M. Aird under an Institutional Review Board-approved protocol. EOC patient-derived cells were collected from patient ascites fluid after paracentesis procedures. Cells were routinely tested for mycoplasma as previously described. […] Spheroid length and width was calculated using ImageJ. Spheroid volume was calculated using the following equation […] Statistical Methods […] IC50 values are reported as mean values±standard deviation. […] Pore size frequency distribution was completed by ImageJ FIJI on 4 independent cells and n=30 pores from SEM images. […] Individual UV-Vis and CD spectra, as well as fluorescent confocal and TEM micrographs, shown are representative plots from three individual experiments. CD data is with a variance in ellipticity of 0.2 millidegrees at each wavelength. Relative fluorescence data calculated from fluorescent confocal images represents the average of 10 independent measurements±standard deviation. For spheroid volume analysis, a Kruskal-Wallis test and Dunn's multiple comparisons test was performed using GraphPad Prism 8.

[4] = system: non-cancerous cell lines HUVEC and NL20; assay: MTT cytotoxicity, non-cancerous control cell lines; assay type: cell-based, human
Protocol: All cells were cultured using standard culture conditions at 37° C., 5% CO2, and 95% humidity. A549 (CCL-185), OVCAR-3 (HTB-161), T24 (HTB-4), and NCI/ADR-RES were cultured in RPMI-1640 supplemented with 10% v/v fetal bovine serum (FBS), 2 mM L-glutamine (L-Gln), 10,000 units penicillin/mL, 10 mg/mL streptomycin, and 25 μg/mL amphotericin B. HUVEC (PCS-100-010) cells were cultured in Vascular Cell Basal Media (PCS-100-030) supplemented with an Endothelial Cell Growth Kit-VEGF (PCS-100-041) and 10 μg/mL gentamycin in culture flasks coated with 0.1% gelatin by incubating at 37° C. for 15 min. NL20 (CRL-2503) cells were cultured in Ham's F12 supplemented with 1.5 g/L sodium bicarbonate, 2.7 g/L glucose, 2.0 mM L-glutamine, 0.1 mM nonessential amino acids, 0.005 mg/ml insulin, 10 ng/ml epidermal growth factor, 0.001 mg/ml transferrin, 500 ng/ml hydrocortisone and 4% fetal bovine serum, as advised by American Type Culture Collection (ATCC).
Viability was calculated by comparing to an untreated control.
All experiments were performed with n>6.

[5] = system: OVCAR-3 ovarian carcinoma cells
[6] = system: human lung epithelium (NL20); details: read-out: Healthy (IC50, μM) NL20; 48 hours treatment, MTT
OVCAR-3 cells [7] = details: read-out: IC50, nuclei-counting assay; OVCAR-3, Hoechst nuclei counting
B. subtilis (168) = details: 24 hours, Gram Positive
P. aeruginosa = details: 24 hours, Gram Negative
M. tuberculosis = details: 24 hours, Mycobacteria

H-KRWHWWRRHWVVW-NH2 [MAD1]
disruption/interaction with normal (healthy) membrane liposomes [1]: did not lyse
cell necrosis (% of population) (OVCAR-3 cells [2]; 2 hours): 16%
late apoptotic phenotype (% of cells) (OVCAR-3 cells [2]; 2 hours): 65%
early apoptotic stage (% of cells) (OVCAR-3 cells [2]; 24 hours): 19%
late apoptotic stage (% of cells) (OVCAR-3 cells [2]; 24 hours): 77%
spheroid size, single agent [3]: minimal reduction in size
toxicity towards non-cancerous control cell lines [4]: well tolerated
Therapeutic Index OVCAR-3 ([5]; IC50-HUVEC/IC50-OVCAR-3): 7
IC50 ([5]; read-out: Cancerous (IC50, μM) OVCAR-3, 48 hours treatment, MTT): 14.2 µM
IC50 [6]: 76.9 µM
IC50 (OVCAR-3 cells [7]): 3.3 µM
MIC (μM) B. subtilis (168) (B. subtilis (168)): 0.2 µM
MIC (μM) P. aeruginosa (P. aeruginosa): 50^a μM
MIC (μM) M. tuberculosis (M. tuberculosis): 2.5 µM

— patent US11571454B2, “Anticancer peptides that synergistically enhance chemotherapeutic potency” (The Penn State Research Foundation, priority 2017, dated 2023)
